Measurements from patent US6710090B2, “Inhibitory or blocking agents of molecular generating and/or inducing functions” (priority 1994, dated 2004).

How the values were obtained:
spermatozoa = assay: Inhibitory effect on flagellum motility of spermatozoa; assay type: cell-based, japanese bull
Procedure: In order to investigate an effect of Yoshixol on a flagellum motility of spermatozoa, the spermatozoa (seed japanese bull ID: Sinmorihide<registration No.Zen-Wa-Kuro1114, lot No.84Y28>) which has been conserved in the liquid nitrogen was thawing at 35° C. After thawing, 1 ml of semen was transferred to Petori-schale (grainer lab. GmHB) and, flagellum motility was observed by a phase contrast microscopy (IMT-2, Olympus Co.) and was recorded by a video film via a collar video camera (CCD-IRIS, Sony Co.) so that wave cycles and speed of the flagellum were analyzed by an original software of dynamic state analyzer. […] However, though a flagellum movement was completely stopped, the rotation of the head which occurs at the centriole (near junction between head and tail) was found during a few 10 seconds. And, a speed of this rotation gradually was decelerated with progress of a time. […] Moreover, from the knowledge that these movements of cells are involved in microfilaments and microtubles which is constricted from the proteins assembly, a morphological change of this spermatozoa due to treatment with Yoshixol was investigated by transmission type (JEM1200, EXII, JEOL, Ltd.) and scanning type (JSM-6000F, JEOL, Ltd.) electron microscopy. The outside of normal flagellum with regular basic structure of 9+2 is enclosed with a cell membrane and, there was the axial filament which structure is related to a movement is observed inside. The axial filament has […] (centrum pair) that exist mainly on the center and nine double tubles that exist in a periphery (circumscription canaliculus). […] But, though morphological aspect as a whole of spermatozoa was not altered by the treatment with Yoshixol, many particles with a size of 10-30 nm on the surface were observed likely to be blowed out, when the surface structure of flagellum was investigated by a magnification. And also, ring formation likely to a doughnut in which region is contributed to the movement was not found and, adhesion of small particles were noticeable (referred FIG. 28). […]

[1] = test system: rejected reaction on heterogeneous skin implantation; assay: Heterogeneous skin implantation, donor skin pretreated with Yoshixol solution; assay type: in vivo, rabbit and dog
Source text: Changes in transplanted skin for 3 months were observed by macroscopically and microscopically, when a piece of skin with entire layer (diameter 3 centimeter meter) at a region of the back of rabbit was transplanted to the region of the back of adult mongrel dog as the entire layer transplantation, and when a piece of skin with entire layer (diameter 3 centimeter meter) at a region of the back of adult mongrel dog was transplanted to the region of the back of rabbit as the entire layer transplantation. Firstly, each piece of skin from rabbit or dog was treated with 5 ml of physiological saline with 10 μl of the test solution for 2 minutes so that each skin piece was transplanted to each recipient by the surgical suture. Two kinds of the test solution were prepared for the above treatment; as control solution, basal solution consists of 2 ml of polyoxyethylene (20) sorbitan monoolate 1 (Wakou Jyunyaku Co.) which is identical to Tween 80 (ICI Ltd.) and 88 ml of physiological saline, and as treated solution, 10 ml of Yoshixol was added in the basal solution. And, 10 μl of Yoshixol was treated directly on the transplanted wound for 3 days after implantation. […] Then, implantated wound of the recipient was cured with a self regenerated skin of each recipient after 3 months. On the other hand, when a piece of transplanted skin is dipped in the Yoshixol solution, the treated skin became to be soft and increases in it's thickness. And, a suture procedure with surgical needle was easily done. […] So that an inflammatory tissue reaction was not also found after 1 month. […] Simultaneously with the above, Yoshixol can inhibit complications of infections on the donor tissues or organs, and can improve an implantation effect. Moreover, by using an entire layer (diameter 3 centimeter meter) of rabbit skin, changes in a piece of the transplanted skin which was sutured to the back of the dog as the recipient were investigated over 3 months after the implantation. […] An outer layer of the transplanted skin was faded 3 month after the implantation likely as to strip a thin membrane.

thrombin = thrombin (Homo sapiens, UniProt P00734); assay: Composition of amino acids in thrombin; assay type: biochemical; design: 1 ml of human thrombin before and after treatment with Yoshixol; conditions: did not exist before treatment; Yoshixol 4 μl
Procedure: Changes in composition of amino acids were analyzed by use of 1 ml of human blood serum, 1 ml of human fibrinogen (concentration of 160 mg/dl), 1 ml of human thrombin before and after treatment with Yoshixol (4 μl). The total amino acids in the human blood serum which was treated with Yoshixol decreased by 41%. And, ratio of each composition was altered after the treatment so that as an example the concentration of phosphoserine increased about 20 times which level was from 7.2 picomole to 164.8 picomole.

[2] = test system: keratinocytes isolated from a human skin; assay: Anti-cancer effect, cultured keratinocytes, microscopy; assay type: cell-based; conditions: 4 μl of Yoshixol
Source text: Adhesive factors between cells play an important role on prolifelation of malignant tumor cells and metastasis. In order to investigate the adhesive factors between cells, intracellular structure of cultured keratinocytes are utilized to observe. Thus, by using keratinocytes isolated from a human skin and cultured in this invention, structure between cells and cellular aspect of keratinocytes (5 days passed after culturing of second generation) were investigated by phase microscope (Olympus Co., IMT-2), transmission type (JEOL, Ltd. JEM 1200, EXII) and scanning type (JEOL, Ltd. JSM-6000F) electron microscopes. In the non-treated group with Yoshixol, the cultured cells proliferated monologously and in order as like as a stone wall. There were normal aspects of intracellular organella and mitosis. There were not blank spaces between cell and filling with intracellular matrix (referred FIGS. 16a, 17a). […] In addition, extracellular matrix has been also dispersed in an irregularity from cells as various sizes of particles (referred FIGS. 16b, 17b). […] And also, Yoshixol has an inhibitory effect of cell prolifelation and metastasis such as tumor cells. […]

E. coli strain no. W3110 = assay: Anti-microbacterial effect on E. Coli; assay type: cell-based; conditions: for colony formation unit (CFU): 2 μl per 1 ml of culture medium

## C=C1CC(C)(C)C=CC1=O [Yoshixol, 4,4-dimethyl-6-methylene-2-cyclohexen-1-one]
spermatozoa; 1 μl of Yoshixol added to 1 ml semen, normal 0.3-1.5 mm per second
  velocity of spermatozoa: zero
spermatozoa; after 1 μl of Yoshixol was added to 1 ml semen
  flagellum movement: immediately inhibited
spermatozoa; electron microscopy after treatment with Yoshixol
  morphological aspect as a whole of spermatozoa: not altered
[1]; skin dipped 2 minutes in Yoshixol solution, 10 μl on wound for 3 days, 2 weeks after implantation
  desquamation and deciduation of transplanted skin: did not show a desquamation and deciduation
[1]; skin dipped in Yoshixol solution, 10 μl on wound for 3 days
  inflammation reaction of transplanted skin: inhibited
[1]; skin dipped in Yoshixol solution, after 1 month
  transplanted wound: cured to a level which could not find a boundary with a skin of recipient
thrombin
  glutamic acid, taurine, methionine and aminoisobutylic acid in thrombin sample: produced newly
[2]; 5 days after culturing of second generation
  aspects of cultured cells: showed diverse irregularity
[2]; electron microscopes
  cell membrane and intracellular organella: destroyed with varieties
E. coli strain no. W3110; after 1 hour cultured, initial 10^8
  colony formation unit (CFU): zero
E. coli strain no. W3110; after 24 hours, initial 10^8, control 10^10
  colony formation unit (CFU): zero
E. coli strain no. W3110; 50 μl in the whole space of the schale, indirect contact, 24 hours, 37° C.
  proliferation with evaporating component of Yoshixol: did not occur
E. coli strain no. W3110; final stage after Yoshixol
  histological aspect of cell death, scanning electron microscopy: destroyed resulting in small particles
